In patent EP1972611A1, “ARYL DIHYDRO-NAPHTHALENE COMPOUNDS, THEIR PREPARATION AND THEIR USE AS AKT INHIBITOR FOR THE PREVENTION AND TREATMENT OF CANCER” (Central South University, priority 2005, dated 2007):
Converted amounts (≈) assume the structure as drawn. Marks after values point to notes of the source that are not given here.

Legend:
COC1 cell = experiment: Inhibition of COC1 cell growth measured by MTT method; type: cell-based; conditions: Homo sapiens, COC1 cells, 48 hours; for IC50: Calcusyn program
Experimental: (§1) Cell lines of COC1, SMMC-7721, MCF-7and HT-29 were purchased from Chinese storage center for typical culture. Cells were cultured in RPMI1640 with 10% FCS at 37°C and 5% of CO2. Cells at log phase were harvested for the experiment.
(§2) Cells growth inhibition was measured with MTT method. Cells suspension of 1.0-1.2×10^5/ml were prepare and transferred to 96 well plate, 180µl per well. After further incubation for 2 hours, 20µl of various reagents were added to each well. The cells were back to incubator for 48 hours, and followed with addition of MTT of 20µl (5mg/ml)to each will. Additional incubation 6 hours later, the plate was centrifuged at 1000 rpm for 5 minutes. After aspirating supernatant, 100µl DMSO were added to each well and the optical density were measured at 490nm. The cells inhibition (IR) is calculated as : IR(%)=[1-A(treated)/A(control)]×100% , where is A is optical density. The IR was analyzed using Calcusyn program to determine the IC50 of each drug

[1] = test system: MDA-MB-435 human breast cancer cells; experiment: Growth inhibition of MDA-MB-435 cells measured with MTT method (example titled induction of apoptosis); type: cell-based; conditions: for cells growth (percentage of the control group): p value less than 0.005
Experimental: Experimental design: MDA-MB-435 human breast cancer cells were cultured in the DMEM medium with 5% FCS. Cells were treated with VB-1 at 2 µM, 4 µM and 10 µM for 3 days. Cells were collected from control and treated groups and measured with MTT method.

HT-29 cell = experiment: Inhibition of HT-29 cell growth (MTT method); type: cell-based; conditions: Homo sapiens, HT-29 cells, 48 hours
Experimental: as §1, §2

MCF-7 cell = experiment: Inhibition of MCF-7 cell growth (MTT method); type: cell-based; conditions: Homo sapiens, MCF7, MCF-7 cells, 48 hours; for IC50: Calcusyn program
Experimental: as §1, §2

Akt = experiment: Inhibition of Akt activation (phosphorylation) in breast cancer cells, Western analysis; type: cell-based, human; conditions: MDA-MB-435 cells; for inhibition of Akt activation by suppressing its phosphorylation: 12 hours, 0, 0.5 µM, 4 µM, and 8 µM, Fig. 3; for levels of total non-phosphorylated Akt protein: Western analysis; for Akt phosphorylation: dose of 4 µM
Experimental: Experimental Design: MDA-MB-435 human breast cancer cells were cultured in the DMEM medium with 5% FCS. When cells reached approximately 50-60% confluence, cells were treated with VB-1 and VB-2 for 12 hours at the following doses: 0, 0.5 µM, 4 µM, and 8 µM. Control and treated cells are harvested and total protein was isolated, normalized, and 45 µg of total protein was subjected to Western analysis. The expression of phosphorylated Akt was determined by using a specific anti-phosphorylated Akt antibody and normalized for total Akt protein expression.

SMMC-7721 cell = experiment: Inhibition of SMMC-7721 cell growth measured by MTT method; type: cell-based; conditions: Homo sapiens, SMMC-7721 cells, 48 hours
Experimental: as §1, §2

[2] = test system: human ovarian tumor cells (CoC1); experiment: In vivo tumor treatment model: nude mice inoculated with CoC1 tumor cells, tumor volume; design: species or system Balb/c-nu mice; conditions: for Suppression rate of tumor growth (%): vs. control (NS); for Volume (mm^3): x±s, n=4
Experimental: Experimental Design: Human ovarian tumor cells (CoC1) were purchased from Chinese storage center for typical culture. Cells were cultured in RPMI1640 with 10% FCS. Sub-culture for every 2-3 days. Cells at log phase were harvested for the experiment. Approximately 2x10^6 CoC1 cells were injected subcutaneously into the back of the Balb/c-nu female nude mice at the age of 6-7 weeks. When tumors reached to ≥ 1000 mm^3 (about 30 days), mice bearing similar size tumors were divided into 2 groups: control (NS) and VB-2 treated group. Each group has 4 mice.
VB-2 was dissolved into DMSO and further diluted with normal saline. […] Treatment groups received drugs every other day until the termination of the experiment. All mice were sacrificed at day 20 after the first treatment. Tumor size was determined by three-dimensional measurements (mm) using a caliper. Only measurable tumors were used to calculate the mean tumor volume for each clone at each time point. Each point represents the mean of tumors ± SE. Statistical comparisons for tumor size in treated mice relative to control mice indicate: ** p < 0.01.

Compound: COc1cc([C@H]2c3cc(O)c(OC)cc3C=C(C=O)[C@@H]2CO)ccc1O [VB-1, 6-hydroxy-4-(4-hydroxy-3-methoxyphenyl)-3-hydroxymethyl-7-methoxy-3,4-dihydro-(3R, 4S)-2-naphthaldehyde]
- inhibition at 0.4 µg/mL (COC1 cell; 0.4 µg/ml): 27.1%
- inhibition at 0.5 µg/mL (COC1 cell): 42.7%
- inhibition at 0.6 µg/mL (COC1 cell; 0.6 µg/ml): 48.1%
- inhibition at 0.8 µg/mL (COC1 cell; 0.8 µg/ml): 65.9%
- inhibition at 1 µg/mL (COC1 cell; 1.0 µg/ml): 66.9%
- IC50 (COC1 cell): 0.63 µg/mL (≈ 1.77 µM)
- cell inhibition ([1]; 2 µM, 4 µM and 10 µM for 3 days, Fig 4): dose dependent cell inhibition
- cells growth (percentage of the control group) ([1]; 4 µM, 3 days): significantly less than the control group
- cells growth (percentage of the control group) ([1]; 8 µM, 3 days): significantly less than the control group
- inhibition at 10 µM ([1]; Homo sapiens, 72 h, 10 µM, 3 days): ~50%
- inhibition at 1 µg/mL (HT-29 cell; 1.00 µg/ml): 22.1%
- inhibition at 10 µg/mL (HT-29 cell; 10.00 µg/ml): 32.3%
- inhibition at 0.1 µg/mL (MCF-7 cell): 6.4%
- inhibition at 0.3 µg/mL (MCF-7 cell): 9.1%
- inhibition at 1 µg/mL (MCF-7 cell): 12.7%
- inhibition at 3 µg/mL (MCF-7 cell): 13.8%
- inhibition at 10 µg/mL (MCF-7 cell): 41.1%
- IC50 (MCF-7 cell): 58 µg/mL (≈ 163 µM)
- inhibition of Akt activation by suppressing its phosphorylation (Akt): dose-dependent inhibition
- levels of total non-phosphorylated Akt protein (Akt; 12 hours): no effects
- Akt phosphorylation (Akt; 12 hours): significantly block
- Akt activation (Akt; 12 hours, dose of 8 µM): completely blocks
- inhibition at 1 µg/mL (SMMC-7721 cell; 1.00 µg/ml): 20.1%
- inhibition at 10 µg/mL (SMMC-7721 cell; 10.00 µg/ml): 22.3%

Compound: COc1cc([C@H]2c3c(ccc(O)c3OC)C=C(C=O)[C@@H]2CO)ccc1O [VB-2, 6-hydroxy-4-(4-hydroxy-3-methoxyphenyl)-3-hydroxymethyl-5-methoxy-3,4-dlhydro(3R, 4S)-2-naphthaldehyde]
- Suppression rate of tumor growth (%) ([2]; day 5, dosage 5 mg/kg, i.p. every other day): 7.8%
- Suppression rate of tumor growth (%) ([2]; day 10, dosage 5 mg/kg, i.p. every other day): 66.5%
- Suppression rate of tumor growth (%) ([2]; day 15, dosage 5 mg/kg, i.p. every other day): 64.5%
- Suppression rate of tumor growth (%) ([2]; day 20, dosage 5 mg/kg, i.p. every other day): 55.7%
- Volume (mm^3) ([2]; initial tumor volume before treatment, dosage 5 mg/kg): 1543±1466 mm^3
- Volume (mm^3) ([2]; tumor volume at day 5, dosage 5 mg/kg, i.p. every other day): 2542±1718 mm^3
- Volume (mm^3) ([2]; tumor volume at day 10, dosage 5 mg/kg, i.p. every other day): 2131±1207* mm^3
- Volume (mm^3) ([2]; tumor volume at day 15, dosage 5 mg/kg, i.p. every other day): 3600±1755* mm^3
- Volume (mm^3) ([2]; tumor volume at day 20, dosage 5 mg/kg, i.p. every other day): 4495±2087** mm^3
- inhibition at 0.5 µg/mL (COC1 cell): 39.9%
- inhibition at 5 µg/mL (COC1 cell): 34.1%
- inhibition at 50 µg/mL (COC1 cell): 39.5%
- inhibition at 0.1 µg/mL (MCF-7 cell): 10.6%
- inhibition at 0.3 µg/mL (MCF-7 cell): 15.8%
- inhibition at 1 µg/mL (MCF-7 cell): 17.6%
- inhibition at 3 µg/mL (MCF-7 cell): 26.4%
- inhibition at 10 µg/mL (MCF-7 cell): 28.7%
- IC50 (MCF-7 cell): 226 µg/mL (≈ 635 µM)
- inhibition of Akt activation by suppressing its phosphorylation (Akt): dose-dependent inhibition
- levels of total non-phosphorylated Akt protein (Akt; 12 hours): no effects
- Akt phosphorylation (Akt; 12 hours): significantly block

Compound: COc1cc([C@H]2c3cc(O)c(OC)cc3C=C(C=O)[C@@H]2CO[C@@H]2O[C@H](CO)[C@@H](O)[C@H](O)[C@H]2O)ccc1O [VB-3, 6-hydroxy-4-(4-hydroxy-3-methoxyphenyl)-3-glucosyloxymethyl-7-methoxy-3,4-dihydro-(3R, 4S)-2-naphthaldehyde]
- inhibition at 0.1 µg/mL (MCF-7 cell): 10.6%
- inhibition at 0.3 µg/mL (MCF-7 cell): 11.3%
- inhibition at 1 µg/mL (MCF-7 cell): 14%
- inhibition at 3 µg/mL (MCF-7 cell): 18.5%
- inhibition at 10 µg/mL (MCF-7 cell): 13.8%
- IC50 (MCF-7 cell): 9260 µg/mL (≈ 17900 µM)

Compound: COc1cc([C@H]2c3cc(O)c(OC)cc3C=C(CO)[C@@H]2CO)ccc1O [VB-4, 6-hydroxy-7-methoxy-4-(4-hydroxy-3-methoxyphenyl)-2,3-dihydroxymethyl-3,4-dihydro(3R, 4S)-2-hydroynaphthalene]
- inhibition at 0.5 µg/mL (COC1 cell): 38.8%
- inhibition at 5 µg/mL (COC1 cell): 40.2%
- inhibition at 50 µg/mL (COC1 cell): 40.6%
- inhibition at 0.1 µg/mL (MCF-7 cell): 19.7%
- inhibition at 0.3 µg/mL (MCF-7 cell): 15.6%
- inhibition at 1 µg/mL (MCF-7 cell): 12.3%
- inhibition at 3 µg/mL (MCF-7 cell): 13.2%
- inhibition at 10 µg/mL (MCF-7 cell): 24%

Compound: COc1cc2c(cc1O)[C@H](c1ccc(O[C@@H]3O[C@H](C(=O)O)[C@@H](O)[C@H](O)[C@H]3O)c(OC)c1)[C@@H](CO)C(C=O)=C2 [VB-5, 6-hydroxy-3-hydroxymethyl-4-(3-methoxyphenyl)-7-methoxy-3,4-dihydro-2-naphthaldehyde-4'-O-β-D-glucopyranosiduronic acid]
- inhibition at 0.5 µg/mL (COC1 cell): 14.3%
- inhibition at 5 µg/mL (COC1 cell): 28.7%
- inhibition at 50 µg/mL (COC1 cell): 35.2%
- IC50 (COC1 cell): 371 µg/mL (≈ 697 µM)
- inhibition at 0.1 µg/mL (MCF-7 cell): 13.6%
- inhibition at 0.3 µg/mL (MCF-7 cell): 22%
- inhibition at 1 µg/mL (MCF-7 cell): 23.2%
- inhibition at 3 µg/mL (MCF-7 cell): 13.6%
- inhibition at 10 µg/mL (MCF-7 cell): 30.4%
- IC50 (MCF-7 cell): 471 µg/mL (≈ 885 µM)

Compound: COc1ccc(C2c3cc(OC)c(OC)cc3C=C(C=O)C2CO)cc1OC (centres unmarked) [VB-6, 6-methoxy-4-(4-methoxy-3-methoxyphenyl)-3-hydroxymethyl-7-methoxy-3,4dihydro-2-naphthaldehyde]
- inhibition at 0.5 µg/mL (COC1 cell): 37%
- inhibition at 5 µg/mL (COC1 cell): 45.6%
- inhibition at 50 µg/mL (COC1 cell): 57.1%
- IC50 (COC1 cell): 11.1 µg/mL (≈ 28.8 µM)
- inhibition at 0.1 µg/mL (MCF-7 cell): 10.9%
- inhibition at 0.3 µg/mL (MCF-7 cell): 19.9%
- inhibition at 1 µg/mL (MCF-7 cell): 22.8%
- inhibition at 3 µg/mL (MCF-7 cell): 41.2%
- inhibition at 10 µg/mL (MCF-7 cell): 46.4%
- IC50 (MCF-7 cell): 11.2 µg/mL (≈ 29 µM)

Compound: COc1cc([C@H]2c3cc(OC)c(OC)cc3C=C(C=O)[C@@H]2CO)ccc1O [VB-7, 6,7-dimethoxy-4-(4-hydroxy-3-methoxyphenyl)-3-hydroxymethyl-3,4-dihydro (3R,4S) -2-naphthaldehyde]
- inhibition at 0.5 µg/mL (COC1 cell): 14.3%
- inhibition at 5 µg/mL (COC1 cell): 27.6%
- inhibition at 50 µg/mL (COC1 cell): 50%
- IC50 (COC1 cell): 53.2 µg/mL (≈ 144 µM)
